In US20170368104A1, “INDUCTION OF TOLERANCE IN LUNG ALLOGRAFT TRANSPLANTATION” (Washington University, priority 2013, published 2017):

Tested on: B6 CD45.1^+ CD4^+ T cells
Assay: In vitro mixed lymphocyte reaction, CD4+ responders
Type: cell-based, mouse
Conditions: agent added to MLR containing accepting allograft-derived CD8+ T cells
Protocol: In vitro mixed lymphocyte reactions were performed in round bottom 96-well plates using 3×10^5 T cell-depleted Balb/c splenocyte stimulators with 10^5 CFSE-labeled B6 CD45.1^+ CD4^+ or CD8^+ T cell responders and, as indicated, 10^5 CD8^+ T cells isolated from lungs or spleens of immunosuppressed B6 recipients of Balb/c allografts. For some experiments central and effector memory T cells were sorted from lungs of resting mice. T cell responses were evaluated flow cytometrically on day 5. All compounds inhibiting the metabolism of essential amino acids were obtained from Sigma-Aldrich (St. Louis, Mo.) and added to the co-cultures as previously described for the duration of the experiment (41).

Row | SMILES | CD8+ T cell-mediated suppression of CD4+ T lymphocyte proliferation
1 | CCC[C@H](N)C(=O)O [L-novaline] | did not affect proliferation
2 | N=C(N)NCCC[C@H](N)C(=O)O [L-arginine] | did not reverse
3 | CC(=N)NCCCC[C@H](N)C(=O)O.Cl.Cl [L-nil, N6-(1-iminoethyl)-L-lysine, dihydrochloride] | able to attenuate
4 | NC(=NCCC[C@H](N)C(=O)O)N[N+](=O)[O-] [L-NNA, NG-nitro-L-Arginine; L-NG-Nitroarginine] | able to attenuate
5 | Cn1cc(C[C@H](N)C(=O)O)c2ccccc21 [1-methyl-tryptophan] | did not affect proliferation
